According to US12583818B2 (DAEGU-GYEONGBUK MEDICAL INNOVATION FOUNDATION, priority 2020, dated 2026):
Read-outs that look alike come from different tables or passages of the source.

Molecular target: T1, Pin1 (Homo sapiens, UniProt Q13526)
T1 construct: purchased Anaspec
Experiment: Evaluation of Pin1 enzyme inhibitory activity (Sensolyte Green Pin1 assay kit)
Assay type: biochemical
Method: In order to evaluate the Pin1 enzyme inhibitory activity of the compound represented by formula 1 according to the present invention, the following experiment was performed, and the results are shown in Table 2 below.
The enzyme activity of Pin1 protein was measured using a sensolyte Green Pin1 assay kit of Anaspec. The substrate was diluted in a buffer at a ratio of 1:100 to prepare a concentration of 1 μM, and the protein was diluted in a buffer at a ratio of 1:20 to prepare a concentration of 50 μg/ml. In addition, a developing solution was prepared by diluting thereof in a buffer at a ratio of 1:100.
The compound prepared in each example was diluted with DMSO and prepared at a concentration of 100 μM, 10 μM, 1 μM or 0.1 μM using a buffer. After sequentially adding 10 μl of the compound prepared in each Example diluted to four concentrations according to the above method, 10 μl of Pin1 protein, and 30 μl of the developing solution to each well of a black 96-well plate, […]. Finally, 50 μl of the substrate was added to each well of the plate, and the enzyme reaction was carried out after shaking the plate for 10 seconds.
Then, the plate was incubated for 2 hours at room temperature in an environment without light, and the fluorescence values at 490 nm/520 nm wavelength were measured using a device of Synergy Neo […]. The results are shown in Table 2 below by dividing the grades of A to D for each concentration (μM) at which the Pin1 enzyme activity is inhibited.

[1] = concentration at which the Pin1 enzyme activity is inhibited, 2 hours at room temperature, fluorescence 490 nm/520 nm, read-out: Pin 1 inhibition
[2] = Table 2, read-out: concentration at which Pin1 inhibitory activity was exhibited

T1 sequence (Q13526 whole entry): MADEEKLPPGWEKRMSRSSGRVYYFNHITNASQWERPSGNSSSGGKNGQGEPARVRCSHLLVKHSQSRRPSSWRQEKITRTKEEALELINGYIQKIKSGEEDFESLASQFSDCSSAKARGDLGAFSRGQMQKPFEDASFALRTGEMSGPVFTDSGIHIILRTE

| IC50 [1] [µM] | IC50 [2] [µM] | SMILES |
| --- | --- | --- |
| > 100 |  | CC(C)N1CCN(CCCOc2ccc(S(=O)(=O)NCCc3c[nH]c4ccccc34)cc2)CC1 [Example 51, N-(2-(1H-indol-3-yl)ethyl)-4-(3-(4-isopropylpiperazin-1-yl)propoxy)benzenesulfonamide] |
| 10 to 100 |  | CN1CCN(CCOc2ccc(S(=O)(=O)NCCCc3c[nH]c4ccccc34)cc2)CC1 [Example 52, N-(3-(1H-indol-3-yl)propyl)-4-(2-(4-methylpiperazin-1-yl)ethoxy)benzenesulfonamide] |
| 10 to 100 |  | CC(C)N1CCN(CCOc2ccc(S(=O)(=O)NCCCc3c[nH]c4ccccc34)cc2)CC1 [Example 53, N-(3-(1H-indol-3-yl)propyl)-4-(2-(4-isopropylpiperazin-1-yl)ethoxy)benzenesulfonamide] |
| 10 to 100 |  | Cc1[nH]c2ccccc2c1CCNS(=O)(=O)c1ccc(OCCCN2CCN(C)CC2)cc1 [Example 54, N-(2-(2-methyl-1H-indol-3-yl)ethyl)-4-(3-(4-methylpiperazin-1-yl)propoxy)benzenesulfonamide] |
| 1 to 10 |  | CN1CCN(CCCOc2ccc(S(=O)(=O)NCCCc3c[nH]c4ccccc34)cc2F)CC1 [Example 62, N-(3-(1H-indol-3-yl)propyl)-3-fluoro-4-(3-(4-methylpiperazin-1-yl)propoxy)benzenesulfonamide] |
| 1 to 10 |  | CCN1CCN(CCCOc2ccc(S(=O)(=O)NCCCc3c[nH]c4ccc(F)cc34)cc2)CC1 [Example 63, 4-(3-(4-ethylpiperazin-1-yl)propoxy)-N-(3-(5-fluoro-1H-indol-3-yl)propyl)benzenesulfonamide] |
| 10 to 100 |  | COc1ccc2[nH]cc(C3CCN(S(=O)(=O)c4ccc(OCCCN5CCN(C)CC5)cc4)CC3)c2c1 [Example 64, 5-methoxy-3-(1-((4-(3-(4-methylpiperazin-1-yl)propoxy)phenyl)sulfonyl)piperidin-4-yl)-1H-indole] |
| 10 to 100 |  | Cc1ccc2[nH]cc(C3CCN(S(=O)(=O)c4ccc(OCCCN5CCN(C)CC5)cc4)CC3)c2c1 [Example 65, 5-methyl-3-(1-((4-(3-(4-methylpiperazin-1-yl)propoxy)phenyl)sulfonyl)piperidin-4-yl)-1H-indole] |
| 1 to 10 |  | Cc1ccc2[nH]cc(CCCNS(=O)(=O)c3ccc(OCCCN4CCN(C)CC4)cc3)c2c1 [Example 67, N-(3-(5-methyl-1H-indol-3-yl)propyl)-4-(3-(4-methylpiperazin-1-yl)propoxy)benzenesulfonamide] |
| 1 to 10 |  | COc1ccc2[nH]cc(CCCNS(=O)(=O)c3ccc(OCCCN4CCN(C)CC4)cc3)c2c1 [Example 68, N-(3-(5-methoxy-1H-indol-3-yl)propyl)-4-(3-(4-methylpiperazin-1-yl)propoxy)benzenesulfonamide] |
| 1 to 10 |  | O=S(=O)(NCCCc1c[nH]c2ccccc12)c1ccc(OCCCN2CCC(O)CC2)cc1 [Example 69, N-(3-(1H-indol-3-yl)propyl)-4-(3-(4-hydroxypiperidin-1-yl)propoxy)benzenesulfonamide] |
| 10 to 100 |  | CN1CCN(CCCOc2ccc(S(=O)(=O)N3CCC(c4c[nH]c5ccc(F)cc45)CC3)cc2)CC1 [Example 71, 5-fluoro-3-(1-((4-(3-(4-methylpiperazin-1-yl)propoxy)phenyl)sulfonyl)piperidin-4-yl)-1H-indole] |
| 10 to 100 |  | C[C@@H]1CN(CCCOc2ccc(S(=O)(=O)NCCCc3c[nH]c4ccc(F)cc34)cc2)C[C@H](C)N1 [Example 72, 4-(3-((3S,5R)-3,5-dimethylpiperazine-1-yl)propoxy)-N-(3-(5-fluoro-1H-indole-3-yl)propyl)benzenesulfonamide] |
| 10 to 100 |  | CC(C)C(=O)N1CCN(CCCOc2ccc(S(=O)(=O)NCCCc3c[nH]c4ccc(F)cc34)cc2)CC1 [Example 73, N-(3-(5-fluoro-1H-indol-3-yl)propyl)-4-(3-(4-isobutyrylpiperazin-1-yl)propoxy)benzenesulfonamide] |
| 1 to 10 |  | O=S(=O)(NCCCc1c[nH]c2ccc(F)cc12)c1ccc(OCCCN2CCN(CC(F)(F)F)CC2)cc1 [Example 74, N-(3-(5-fluoro-1H-indol-3-yl)propyl)-4-(3-(4-(2,2,2-trifluoroethyl)piperazin-1-yl)propoxy)benzenesulfonamide] |
| 1 to 10 |  | O=S(=O)(NCCCc1c[nH]c2ccc(Cl)cc12)c1ccc(OCCCN2CCN(CC(F)(F)F)CC2)cc1 [Example 76, N-(3-(5-chloro-1H-indol-3-yl)propyl)-4-(3-(4-(2,2,2-trifluoroethyl)piperazin-1-yl)propoxy)benzenesulfonamide] |
| 1 to 10 |  | O=S(=O)(NCCCc1c[nH]c2ccc(F)cc12)c1ccc(OCCCN2CCCCC2)cc1 [Example 84, N-(3-(5-fluoro-1H-indol-3-yl)propyl)-4-(3-(piperidin-1-yl)propoxy)benzenesulfonamide] |
| 10 to 100 |  | CN1CCN(CCCOc2ccc(S(=O)(=O)NC3CCCC(c4c[nH]c5ccccc45)C3)cc2)CC1 (stereo not drawn) [Example 85, N-(3-(1H-indole-3-yl)cyclohexyl)-4-(3-(4-methylpiperazine-1-yl)propoxy)benzenesulfonamide] |
| < 1 | < 1 | O=S(=O)(NCCCc1c[nH]c2ccc(Cl)cc12)c1ccc(OCCCN2CCCCC2)cc1 [Example 87, N-(3-(5-chloro-1H-indol-3-yl)propyl)-4-(3-(piperidin-1-yl)propoxy)benzenesulfonamide] |
| 10 to 100 |  | CN1CCN(CCCOc2ccc(S(=O)(=O)Nc3cccc(-c4c[nH]c5ccccc45)c3)cc2)CC1 [Example 89, N-(3-(1H-indole-3-yl)phenyl)-4-(3-(4-methylpiperazine-1-yl)propoxy)benzenesulfonamide] |
| 1 to 10 |  | O=S(=O)(NCCCc1c[nH]c2ccc(Cl)cc12)c1cccc(OCCCC2CCNCC2)c1 [Example 94, N-(3-(5-chloro-1H-indol-3-yl)propyl)-3-(3-(piperidin-4-yl)propoxy)benzenesulfonamide] |
| 1 to 10 |  | O=S(=O)(NCCCc1c[nH]c2ccc(Cl)cc12)c1cccc(OCCCN2CCNCC2)c1 [Example 96, N-(3-(5-chloro-1H-indol-3-yl)propyl)-3-(3-(piperazin-1-yl)propoxy)benzenesulfonamide] |
| 1 to 10 |  | O=S(=O)(NCCCc1c[nH]c2ccc(F)cc12)c1ccc(OCCCC2CCNCC2)cc1 [Example 97, N-(3-(5-fluoro-1H-indol-3-yl)propyl)-4-(3-(piperidin-4-yl)propoxy)benzenesulfonamide] |
| < 1 | < 1 | O=S(=O)(NCCCc1c[nH]c2ccc(Cl)cc12)c1ccc(OCCCN2CCCCCC2)cc1 [Example 101, 4-(3-(azepan-1-yl)propoxy)-N-(3-(5-chloro-1H-indol-3-yl)propyl)benzenesulfonamide] |
| < 1 | < 1 | O=S(=O)(NCCCc1c[nH]c2ccc(Cl)cc12)c1ccc(OCCCN2CCCNCC2)cc1 [Example 102, 4-(3-(1,4-diazepan-1-yl)propoxy)-N-(3-(5-chloro-1H-indol-3-yl)propyl)benzenesulfonamide] |
| < 1 | < 1 | CC1CN(CCCOc2ccc(S(=O)(=O)NCCCc3c[nH]c4ccc(Cl)cc34)cc2)CCN1 (stereo not drawn) [Example 107, N-(3-(5-chloro-1H-indole-3-yl)propyl)-4-(3-(3-methylpiperazine-1-yl)propoxy)benzenesulfonamide] |
